Experimental data as given in patent publication US10799522B2, “Compositions and methods relating to galectin detection” (Wayne State University, priority 2015, dated 2020).
Entries after “also recorded” stand apart in the source; their conditions may differ.

How the values were obtained:
[1] = dynamic PET/CT imaging, pharmacokinetics and biodistribution in a normal rat; format: in vivo, Sprague-Dawley rats
Procedure: Sprague-Dawley rats (males, ˜250 g) were anesthetized using inhalation of 2% isoflurane in oxygen, and their body temperature maintained at 37° C. by a heating pad with a feedback temperature control. […] Dynamic PET images were acquired in the list-mode and reconstructed using OSEM algorithm at multiple time frames post radiotracer administration (0-2, 2-4, 4-6, 6-8, 8-10, 10-20, 20-30, 30-40, 40-50, 50-60 min), followed by a whole body image that has been acquired using 3 consecutive bed positions, 5 min/bed position. Thereafter, while still fixed to the positioning bed, the rats were moved with the bed into the gantry of the INVEON SPECT/CT (Siemens) and CT images were acquired over the whole body area for attenuation correction of PET images and for production of PET/CT images. PET/CT fusion images were generated and analyzed using the AMIDE software version 1.0.4. […] The data was analyzed using GraphPad Prism version 6 (GraphPad Prism, Inc.) and pharmacokinetic parameters of clearance were calculated by fitting the resultant time-activity curves with exponential or bi-exponential functions.

[2] = system: orthotopic human breast carcinoma xenograft (MCF10DCIS); test: dynamic PET/CT imaging, pharmacokinetics and biodistribution in tumor-bearing mice; format: in vivo, immunedeficient nu/nu mice
Procedure: A single (unilateral) orthotopic breast carcinoma xenograft was established in immunedeficient nu/nu mice by injection of human breast ductal carcinoma in situ cells (MCF10DCIS) in Matrigel into one of the upper mammary fat pad.
Tumor-bearing mice (˜20-25 g) were anesthetized using inhalation of 2% isoflurane in oxygen, and their body temperature maintained at 38° C. by a heating pad with a feedback temperature control. […] Dynamic PET images were acquired in list-mode and reconstructed using OSEM algorithm at multiple time frames post radiotracer administration (0-2, 2-4, 4-6, 6-8, 8-10, 10-20, 20-30, 30-40, 40-50, 50-60 min). Thereafter, while still fixed to the positioning bed, the mice were moved with the bed into the gantry of INVEON SPECT/CT (Siemens), and CT images were acquired over the whole body area for attenuation correction of PET images and for production of PET/CT images. PET/CT fusion images were generated and analyzed in a similar manner as when studying rats.

[3] = rats, i.v., bi-exponential clearance from the blood
[4] = rats, i.v., mono-exponential kinetics
[5] = tumor-bearing mice, i.v., bi-exponential clearance from the blood
[6] = tumor-bearing mice, mono-exponential kinetics

Compound: OCC1OC(SC2OC(CO)C(O)C(n3cc(-c4cccc([18F])c4)nn3)C2O)C(O)C(n2cc(-c3cccc(F)c3)nn2)C1O [[^18F]FPTDG, 3-(3-[^18F]fluorophenyltriazolyl)-3-deoxy-3′-(3-fluorophenyltriazolyl)-3′-deoxy-1-thio-β-D-digalactopyranoside]
- defluorination ([1]; [^18F]-fluoride radioactivity accumulation in the bone): Minimal, but detectable
- radioactivity levels in all major organs and tissues, including the liver and gall bladder ([1]; after 75 min post intravenous administration): very low
- primary radiation dose-limiting organs ([1]; based on dynamic PET/CT imaging results): liver and gall bladder; also recorded: liver and gallbladder
- pharmacologic toxicity ([1]; radiotracer doses): No pharmacologic toxicity can be anticipated or actually observed; also recorded: No acute pharmacologic toxicity at radiotracer doses has been observed
- accumulation or retention of radioactivity in the lungs, muscles, and other organs and tissues ([1]; rats, i.v.): extremely low; also recorded: No substantial uptake or retention
- crossing of the blood-brain barrier (radioactivity in the brain) ([1]; rats, i.v.): does not cross the blood-brain barrier (BBB)
- route of excretion ([1]; rats, i.v.): predominantly via the hepatobiliary route of excretion; also recorded: primarily excreted via the hepatobiliary route
- blood fast clearance half-time [1, 3]: 0.5 min
- blood slow clearance half-time [1, 3]: 7.36 min
- kidney clearance half-time [1, 4]: 68 min
- liver clearance half-time [1, 4]: 53 min
- renal clearance ([1]; rats, i.v., radioactivity in the bladder): insignificant
- magnitude of catabolism ([1]; rats, bone accumulation at 60-75 min post injection): negligible
- retention in MCF10DCIS xenografts ([2]; 20 to 60 min post i.v. injection): significant retention
- accumulation of radioactivity in normal mammary fat pads ([2]; mice, PET/CT): no accumulation of radioactivity was detectable
- accumulation or retention of radioactivity in the lungs, muscles, and other organs and tissues ([2]; mice, i.v.): extremely low
- crossing of the blood-brain barrier (radioactivity in the brain) ([2]; mice, i.v.): does not cross the blood-brain barrier (BBB) in mice either
- magnitude of catabolism ([2]; mice, bone accumulation at 60 min post injection): negligible
- increased binding and accumulation in MCF10DCIS, as compared to normal breast tissue and muscle (Logan graphical analysis) ([2]; mice, muscle as reference tissue): 2-3 fold
- renal clearance ([2]; mice, radioactivity in the bladder): more active in mice, as compared with rats
- route of excretion ([2]; tumor-bearing mice, i.v.): predominantly via the hepatobiliary route of excretion
- blood fast clearance half-time [2, 5]: ~0.5 min
- blood slow clearance half-time [2, 5]: ~10.5 min
- kidney clearance half-time [2, 6]: 37 min
- liver clearance half-time [2, 6]: ~120 min
